Assay results as given in US10065941B2, “Aminotriazine derivative and pharmaceutical composition comprising the same” (Shionogi & Co., Ltd., priority 2013, dated 2018).

How the values were obtained:
human P2X3 receptor = human P2X3 receptor (Homo sapiens (Human), UniProt P56373); experiment: Evaluation of human P2X3 receptor inhibitory activity (Test Example 1); type: cell-based; conditions: C6BU-1 cell transfected with human P2X3 receptor gene, FLIPR 384
In short: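 FLIPR calcium read-out: signal taken as peak fluorescence after ATP addition divided by starting fluorescence, and IC50 calculated from it. Compound added 5 min before 150 nM ATP solution (pre-dispense stock) to Fluo-3-AM-loaded C6BU-1 cells stably transfected with human P2X3; HEPES buffer pH 7.5 with probenecid.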

[1] = target: human ether-a-go-go related gene (hERG) channel (Homo sapiens (Human), UniProt Q12809); experiment: hERG test, whole cell patch clamp in CHO cells (Test Example 13); type: cell-based; conditions: CHO cells expressing hERG channel, tail peak current, 10 minutes
From the text: For the purpose of assessing risk of an electrocardiogram QT interval prolongation of the compound of the present invention, effects of the compound of the present invention on delayed rectifier K+ current (IKr), which plays an important role in the ventricular repolarization process, was studied using CHO cells expressing human ether-a-go-go related gene (hERG) channel.
After a cell was retained at a membrane potential of −80 mV by whole cell patch clamp method using an automated patch clamp system (QPatch; Sophion Bioscience A/S) and gave a leak potential of −50 mV, IKr induced by depolarization pulse stimulation at +20 mV for 2 seconds and, further, repolarization pulse stimulation at −50 mV for 2 seconds, was recorded. […] From the recording IKr, an absolute value of the tail peak current was measured based on the current value at the resting membrane potential using analysis software (Falster Patch; Sophion Bioscience A/S). Further, the % inhibition relative to the tail peak current before application of the compound of the present invention was calculated, and compared with the vehicle-applied group (0.1% dimethyl sulfoxide solution) to assess influence of the compound of the present invention on IKr.

rat P2X3 receptor = rat P2X3 receptor (Rattus norvegicus (Rat), UniProt P49654); experiment: Evaluation of rat P2X3 receptor inhibitory activity (Test Example 3); type: cell-based; conditions: rat P2X3 receptor gene expressed in C6BU-1 cell; read-out: ratP2X3 IC50
Protocol: Rat P2X3 receptor gene (GenBank accession number NM_031075) was expressed in C6BU-1 cell. The C6BU-1 cells were seeded in a 96-well microtiter plate at a concentration of 2500 cells/well and cultured in the medium (7.0% fetal bovine serum, 7.0% horse serum, and 1% antibiotic and antifungal in DMEM) for one day at 37° C. under 5% carbon dioxide atmosphere. The plasmid was transfected into the cells using transfection reagent FuGENE6 (Promega). The transfected cells were cultured in the medium for one day at 37° C. under 5% carbon dioxide atmosphere. […] Measurement of fluorescence intensity by FDSS 3000 was started, and 40 μL of DMSO solutions containing different concentrations of the test compound as prepared by dilution with dilution buffer (20 mM HEPES, 137 mM NaCl, 5.27 mM KCl, 0.9 mM MgCl2, 1.26 mM CaCl2, 5.6 mM D-glucose, 2.5 mM probenecid, 0.1% Pluronic F-127, pH7.5) were dispensed to each well through the built-in automatic dispenser. Five minutes after, 50 nM ATP solution (50 μL) prepared by dilution with the dilution buffer was dispensed through the built-in automatic dispenser, and the measurement of fluorescence intensity was continued for 4 min. For each well, the specific maximum fluorescence intensity was calculated as the ratio of the maximum fluorescence intensity after addition of the ATP solution to the fluorescence intensity at the starting of the measurement. […]

[2] = Metabolism stability test, pooled human hepatic microsomes (Test Example 11); type: in vitro ADME; conditions: human liver microsomes, 30 minutes, compound concentration 0.5 μmol/L
Protocol: Using commercially available pooled human hepatic microsomes, a test compound is reacted for a constant time, a remaining rate is calculated by comparing a reacted sample and an unreacted sample, thereby, a degree of metabolism in liver is assessed.
A reaction was performed (oxidative reaction) at 37° C. for 0 minute or 30 minutes in the presence of 1 mmol/L NADPH in 0.2 mL of a buffer (50 mmol/L tris-HCl pH 7.4, 150 mmol/L potassium chloride, 10 mmol/L magnesium chloride) containing 0.5 mg protein/mL of human liver microsomes. After the reaction, 50 μL of the reaction solution was added to 100 μL of a methanol/acetonitrile=1/1 (v/v), mixed and centrifuged at 3000 rpm for 15 minutes. The test compound in the supernatant was quantified by LC/MS/MS, and a remaining amount of the test compound after the reaction was calculated, letting a compound amount at 0 minute reaction time to be 100%.
The remaining rate at the compound concentration 0.5 μmol/L are shown below.

[3] = system: partial sciatic nerve ligation model in rats; experiment: Analgesic effect in a Seltzer model, Evaluation (1): mechanical allodynia, von Frey filaments (Test Example 6); type: in vivo; conditions: rat Seltzer model, reversal of mechanical allodynia (von Frey), single oral administration of 1 mg/kg, at 3 hours
From the text: Rats were anaesthetized using isoflurane/O2 inhalation anaesthesia. After induction of anesthesia, the left thigh was shaved. An incision was made in the skin just below the hip bone. The muscle was bluntly dissected to expose the sciatic nerve. One third (⅓) to one half (½) of the sciatic nerve thickness was tightly ligated and the wound was closed. The right thigh is used as a sham-operated control. The right thigh undergoes an identical procedure with the left hind limb, however, the sciatic nerve is not manipulated or ligated.
Two weeks after nerve ligation, the effect on mechanical allodynia was assessed using a series of von Frey filaments. For habituation, the rats were placed into a plastic cage on a wire mesh bottom. The mechanical sensitivity (mechanical threshold) of the hind paws was estimated with a series of von Frey filaments (0.4-26 g). The measurement of mechanical sensitivity of the right and left hind paws was performed to obtain predose mechanical sensitivity. […] On the day before the experiment, the rats were evaluated with a series of von Frey filaments to familiarize them with the test procedure. […] Post-dose mechanical sensitivities of the right and left hind paws were measured at approximately 1 to 5 hours after drug administration. Percent reversal of mechanical allodynia for each rat was calculated using the following formula. […]

[4] = Pharmacokinetic test: bioavailability and total body clearance (Test Example 15); type: in vivo; conditions: SD rats, from AUCs of oral and intravenous groups
Protocol: • (1) Animals: SD rats were used • (2) Breeding conditions: SD rats were allowed to freely take solid food and sterilized tap water. • (3) Dose and grouping: orally or intravenously administered at a predetermined dose; grouping was as follows (Dose depends on the compound)
Oral administration: 1 mg/kg (n=2)
The total body clearance (CLtot) was calculated by dividing the dose by the AUC of the intravenous administration group.

Sequence of human P2X3 receptor (P56373 whole entry): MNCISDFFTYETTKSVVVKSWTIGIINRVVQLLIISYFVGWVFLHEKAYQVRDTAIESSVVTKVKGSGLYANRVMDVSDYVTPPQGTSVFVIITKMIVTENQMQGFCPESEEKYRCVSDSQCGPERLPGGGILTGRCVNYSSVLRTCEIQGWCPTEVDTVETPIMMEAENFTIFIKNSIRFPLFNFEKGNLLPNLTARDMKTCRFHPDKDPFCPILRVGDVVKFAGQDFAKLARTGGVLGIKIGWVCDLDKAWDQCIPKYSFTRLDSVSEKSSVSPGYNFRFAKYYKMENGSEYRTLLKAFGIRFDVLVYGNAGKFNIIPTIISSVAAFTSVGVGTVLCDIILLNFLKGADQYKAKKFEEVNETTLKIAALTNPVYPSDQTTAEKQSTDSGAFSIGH
Sequence of rat P2X3 receptor (P49654 whole entry): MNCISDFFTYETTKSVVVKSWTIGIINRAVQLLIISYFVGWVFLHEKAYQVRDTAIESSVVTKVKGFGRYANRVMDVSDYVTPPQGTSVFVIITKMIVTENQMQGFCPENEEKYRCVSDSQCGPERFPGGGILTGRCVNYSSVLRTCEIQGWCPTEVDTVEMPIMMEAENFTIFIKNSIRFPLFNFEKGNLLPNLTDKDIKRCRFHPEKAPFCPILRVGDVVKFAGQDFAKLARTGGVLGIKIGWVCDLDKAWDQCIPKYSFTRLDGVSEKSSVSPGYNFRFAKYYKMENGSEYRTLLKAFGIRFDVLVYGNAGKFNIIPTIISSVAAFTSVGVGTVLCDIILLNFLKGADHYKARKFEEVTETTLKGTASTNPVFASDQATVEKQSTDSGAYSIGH
Sequence of human ether-a-go-go related gene (hERG) channel (Q12809 whole entry): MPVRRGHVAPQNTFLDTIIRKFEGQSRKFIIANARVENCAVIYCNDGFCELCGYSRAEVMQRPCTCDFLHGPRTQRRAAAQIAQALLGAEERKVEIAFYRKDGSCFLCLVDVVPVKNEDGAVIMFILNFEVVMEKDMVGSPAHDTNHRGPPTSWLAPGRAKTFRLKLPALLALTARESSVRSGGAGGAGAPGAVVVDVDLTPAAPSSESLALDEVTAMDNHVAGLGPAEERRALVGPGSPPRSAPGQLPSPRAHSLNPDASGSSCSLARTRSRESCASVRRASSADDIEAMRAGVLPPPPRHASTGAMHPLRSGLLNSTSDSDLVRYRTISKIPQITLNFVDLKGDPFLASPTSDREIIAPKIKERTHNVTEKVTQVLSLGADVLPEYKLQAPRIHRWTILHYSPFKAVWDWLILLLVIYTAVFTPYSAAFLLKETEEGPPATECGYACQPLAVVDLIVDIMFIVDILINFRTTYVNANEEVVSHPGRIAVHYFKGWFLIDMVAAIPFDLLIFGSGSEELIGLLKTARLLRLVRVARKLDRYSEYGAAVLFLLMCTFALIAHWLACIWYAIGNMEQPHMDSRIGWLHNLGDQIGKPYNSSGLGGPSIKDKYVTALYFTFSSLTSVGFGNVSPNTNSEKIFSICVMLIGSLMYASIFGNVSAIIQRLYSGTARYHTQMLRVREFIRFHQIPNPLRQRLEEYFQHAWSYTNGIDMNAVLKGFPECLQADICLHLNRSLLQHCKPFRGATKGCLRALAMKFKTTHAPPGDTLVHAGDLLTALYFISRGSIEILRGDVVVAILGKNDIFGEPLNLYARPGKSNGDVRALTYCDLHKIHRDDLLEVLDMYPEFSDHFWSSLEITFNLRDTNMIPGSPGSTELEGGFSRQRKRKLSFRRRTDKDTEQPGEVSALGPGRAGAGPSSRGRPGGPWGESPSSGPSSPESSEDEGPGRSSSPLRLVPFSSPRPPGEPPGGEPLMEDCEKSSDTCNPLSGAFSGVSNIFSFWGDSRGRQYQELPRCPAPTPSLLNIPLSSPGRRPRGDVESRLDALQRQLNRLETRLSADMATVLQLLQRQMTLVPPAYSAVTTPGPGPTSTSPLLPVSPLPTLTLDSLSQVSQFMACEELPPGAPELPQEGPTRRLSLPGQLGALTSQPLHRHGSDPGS

Question: What does the source list for `C[C@@H](C(=O)O)[C@H](C)n1c(=O)[nH]/c(=N\c2ccc(Oc3ccc(F)cn3)c(F)c2)n(Cc2ccc(Cl)cc2)c1=O` [Compound I-002]?
Answer: IC50 (human P2X3 receptor): 5 nM; hERG Inhibition [1]: 7.3%; IC50 (rat P2X3 receptor): 6 nM; Metabolism Stability (remaining rate) [2]: 99%

Question: For `CC(C)(Cn1c(=O)[nH]/c(=N\c2ccc(Oc3ccc(Cl)cn3)cc2)n(Cc2ccc(Cl)cc2)c1=O)C(=O)O` [Compound I-006], which IC50 (human P2X3 receptor) is on record?
Answer: The IC50 was 5 nM.

Question: And the “hERG Inhibition” value [1]?
Answer: The value was 5.3%.

Question: Which IC50 (human P2X3 receptor) does the source give for `O=c1[nH]/c(=N\c2ccc(Oc3ccc(F)cn3)cc2)n(Cc2ccc(Cl)cc2)c(=O)n1[C@H]1C[C@H](C(=O)O)C1` [Compound I-019] here?
Answer: Its IC50 is 7 nM.

Question: And the “Metabolism Stability (remaining rate)” value [2]?
Answer: Its value is 96%.

Question: And the “% reversal” value [3]?
Answer: Its value is 27.9%.

Question: With `Cc1ccc(Cn2c(=O)n(C[C@H](C)C(=O)O)c(=O)[nH]/c2=N\c2ccc(Oc3cccc(F)n3)cc2)cc1` [Compound I-057] as the compound, how does the BA [4] read?
Answer: The BA was 66.4%.

Question: What about the IC50 (human P2X3 receptor) of the same compound?
Answer: The IC50 was 5 nM.

Question: What about the “Metabolism Stability (remaining rate)” value [2] of the same compound?
Answer: Its value is 91%.

Question: What about the “% reversal” value [3] of the same compound?
Answer: The value was 21.4%.

Question: Which IC50 (human P2X3 receptor) does the source give for `COc1cc(Oc2ccc(/N=c3\[nH]c(=O)n([C@@H](C)[C@@H](C)C(=O)O)c(=O)n3Cc3ccc(Cl)cc3)cc2)ccn1` [Compound R-009] here?
Answer: Its IC50 is 7 nM.

Question: And the IC50 (rat P2X3 receptor)?
Answer: Its IC50 is 4 nM.
